We go through seven molecules from article PMC5896574 (ChemMedChem, 2017).

One experiment deals with HIV-1LAI. Put plainly: Antiviral assay using MT-2 cells exposed to HIV-1LAI. Type of experiment: cell-based.
In the next experiment the target is HIV-1 protease (Human immunodeficiency virus type 1 group M subtype B, UniProt P04585). In words: HIV-1 protease inhibitory assay. Type of experiment: biochemical.
The subject of the next experiment is HIV-1NL4-3. Put plainly: Antiviral p24 assay, MT-4 cells exposed to wild-type HIV-1NL4-3. Type of experiment: cell-based.
The subject of the next experiment is HIV-1DRV^RP20. Put plainly: microbe, parasite or virus in culture. Format: cell-based. To be noted: for fold change of IC50: HIV-1DRV^RP20 relative to HIV-1NL4-3.
The subject of a further experiment is HIV-1DRV^RP30. Put plainly: microbe, parasite or virus in culture. Format: cell-based. To be noted: for fold change of IC50: HIV-1DRV^RP30 relative to HIV-1NL4-3.
A further experiment concerns HIV-1DRV^RP40. Put plainly: microbe, parasite or virus in culture. Type of experiment: cell-based. Particulars: for fold change of IC50: HIV-1DRV^RP40 relative to HIV-1NL4-3.
The subject of another experiment is HIVAO2. Put plainly: Antiviral activity of 3b against HIVAO2. Type of experiment: cell-based, HIV.
Another experiment deals with HIV-2ROD. In words: Antiviral activity of 3b against HIV-2ROD. Type of experiment: cell-based. Particulars: read-out: Antiviral activity (EC50).
A further experiment concerns HIVDRV^RP20. Put plainly: Antiviral activity of 3b against HIVDRV^RP20. To be noted: read-out: Antiviral activity (EC50). Type of experiment: cell-based, HIV.
Setting [1] is: read-out: antiviral IC50, MT-2 cells exposed to HIV-1LAI, mean of at least three experiments.
Where [2] appears, read: Human immunodeficiency virus 1, MT2, read-out: antiviral IC50.
Setting [3] is: Human immunodeficiency virus 1, MT4.

For orientation: IC50 means the point on the concentration scale where inhibition reaches its midpoint. Broadly, the Ki is a measure of affinity in units of concentration, obtained from inhibition or displacement. A high value points to a looser hold on the target. The term EC50 denotes the concentration that produces a half-maximal response.

Like-named read-outs stand apart in the source and are kept apart here.

For `CC(C)CN(C[C@@H](O)[C@H](Cc1ccccc1)NC(=O)O[C@H]1CO[C@H]2OCC[C@H]21)S(=O)(=O)c1ccc([C@@H](C)O)cc1` [3e, (3R,3aS,6aR)-Hexahydrofuro[2,3-b]furan-3-yl ((2S,3R)-3-hydroxy-4-((4-((R)-1-hydroxyethyl)-N-isobutylphenyl)sulfonamido)-1-phe-nylbutan-2-yl)carbamate], in the experiment on HIV-1LAI (setting [1]), the IC50 amounted to 4 nM.
`COC(=O)c1coc(-c2ccc(S(=O)(=O)N(CC(C)C)C[C@@H](O)[C@H](Cc3ccccc3)NC(=O)O[C@H]3CO[C@H]4OCC[C@H]43)cc2)n1` [3g, Methyl 2-(4-(N-((2R,3S)-3-(((((3R,3aS,6aR)-hexahydrofuro[2,3-b]furan-3-yl)oxy)carbonyl)amino)-2-hydroxy-4-phenylbutyl)-N-isobutylsulfamoyl)phenyl)oxazole-4-carboxylate]: on HIV-1 protease, the Ki is 0.0279 nM. Further, the IC50 in the experiment with HIV-1LAI (setting [2]) was 6.2 nM; with HIV-1NL4-3 (setting [3]), 22 nM; in the experiment with HIV-1DRV^RP20 (setting [3]), 320 nM; in the experiment with HIV-1DRV^RP30 (setting [3]), 430 nM; in the experiment on HIV-1DRV^RP40 (setting [3]), over 1000 nM. The “fold change of IC50” value with HIV-1DRV^RP20 is on record as 15; in the experiment on HIV-1DRV^RP30, 20; with HIV-1DRV^RP40 it was over 46.
Take `CC(C)CN(C[C@@H](O)[C@H](Cc1ccccc1)NC(=O)O[C@H]1CO[C@H]2OCC[C@H]21)S(=O)(=O)c1ccc(C(=O)O)cc1` [3a, 4-(N-((2R,3S)-3-(((((3R,3aS,6aR)-Hexahydrofuro[2,3-b]furan-3-yl)oxy)carbonyl)amino)-2-hydroxy-4-phenylbutyl)-N-isobutylsul-famoyl)benzoic acid]: in the experiment with HIV-1LAI (read-out: antiviral IC50, MT-2 cells exposed to HIV-1LAI), the 50% inhibitory concentration (IC50) was over 1000 nM.
For `CC(C)CN(C[C@@H](O)[C@H](Cc1ccccc1)NC(=O)O[C@H]1CO[C@H]2OCC[C@H]21)S(=O)(=O)c1ccc(N)cc1` [DRV, darunavir, reference compound], the IC50 with HIV-1LAI (setting [2]) is 1.6 nM; with HIV-1NL4-3 (setting [3]), 3.4 nM; in the experiment on HIV-1DRV^RP20 (setting [3]), 43 nM; in the experiment with HIV-1DRV^RP40 (setting [3]), over 1000 nM.
`CC(C)CN(C[C@@H](O)[C@H](Cc1ccccc1)NC(=O)O[C@H]1CO[C@H]2OCC[C@H]21)S(=O)(=O)c1ccc(C(N)=O)cc1` [3b, (3R,3aS,6aR)-Hexahydrofuro[2,3-b]furan-3-yl ((2S,3R)-4-((4-carba-moyl-N-isobutylphenyl)sulfonamido)-3-hydroxy-1-phenylbutan-2-yl)carbamate]: the IC50 in the experiment on HIV-1LAI (setting [1]) is 45 nM. The EC50 with HIVAO2 was determined as 29 nM; in the experiment on HIV-2ROD, 30 nM; in the experiment on HIVDRV^RP20 it was 97 nM.
As to `CC(C)CN(C[C@@H](O)[C@H](Cc1ccccc1)NC(=O)O[C@H]1CO[C@H]2OCC[C@H]21)S(=O)(=O)c1ccc(-c2nc(CO)co2)cc1` [3h, (3R,3aS,6aR)-Hexahydrofuro[2,3-b]furan-3-yl ((2S,3R)-3-hydroxy-4-((4-(4-(hydroxymethyl)oxazol-2-yl)-N-isobutylphenyl)sulfona-mido)-1-phenylbutan-2-yl)carbamate], the IC50 was 3.9 nM with HIV-1LAI (setting [1]); 3 nM in the experiment with HIV-1NL4-3 (MT-4 cells, 50 TCID50 HIV-1NL4-3, p24 assay); 260 nM in the experiment with HIV-1DRV^RP20 (MT-4 cells, 50 TCID50 HIV-1DRV^RP20, p24 assay); 290 nM in the experiment on HIV-1DRV^RP30 (MT-4 cells, 50 TCID50 HIV-1DRV^RP30, p24 assay); over 1000 nM with HIV-1DRV^RP40 (MT-4 cells, 50 TCID50 HIV-1DRV^RP40, p24 assay). In addition, the “fold change of IC50” value with HIV-1DRV^RP20 was 88; in the experiment with HIV-1DRV^RP30, 99; in the experiment with HIV-1DRV^RP40, over 337.
Turning to `CC(C)CN(CC(O)C(Cc1ccccc1)NC(=O)OC1COC2OCCC12)S(=O)(=O)c1ccc(-c2cnco2)cc1` [3i, (3R,3aS,6aR)-Hexahydrofuro[2,3-b]furan-3-yl ((2S,3R)-3-hydroxy-4-((N-isobutyl-4-(oxazol-5-yl)phenyl)sulfonamido)-1-phenylbu-tan-2-yl)carbamate], in the experiment on HIV-1LAI (setting [1]), the IC50 stood at 2.8 nM.
